# Assay results taken from paper PMC7613998, “Development of selective inhibitors of phosphatidylinositol 3-kinase C2α” (Nature Chemical Biology, 2022).
# Tests used:
# Experiment in all cases: biochemical
# Design in all cases: SelectScreen Z'-LYTE purified kinase panel, per cent inhibition, mean of two points
# [1] = molecular target: PKN1 (PRK1) (Homo sapiens, UniProt Q16512); settings: (μM)=Km app
# [2] = molecular target: AKT2 (PKB beta) (Homo sapiens, UniProt P31751); settings: (μM)=Km app
# [3] = molecular target: SRC (Homo sapiens, UniProt P12931); settings: (μM)=Km app
# [4] = molecular target: ABL1 E255K (Homo sapiens, UniProt P00519, E255K); settings: (μM)=Km app
# [5] = molecular target: IGF1R (Homo sapiens, UniProt P08069); settings: (μM)=Km app
# [6] = molecular target: PLK1 (Homo sapiens, UniProt P53350); settings: (μM)=Km app
# [7] = molecular target: ABL1 (Homo sapiens, UniProt P00519); settings: (μM)=Km app
# [8] = molecular target: T1, PDK1 (Homo sapiens, UniProt O15530); settings: (μM)=100
# T1 construct: gene PDPK1
# T1 sequence (O15530 1-556): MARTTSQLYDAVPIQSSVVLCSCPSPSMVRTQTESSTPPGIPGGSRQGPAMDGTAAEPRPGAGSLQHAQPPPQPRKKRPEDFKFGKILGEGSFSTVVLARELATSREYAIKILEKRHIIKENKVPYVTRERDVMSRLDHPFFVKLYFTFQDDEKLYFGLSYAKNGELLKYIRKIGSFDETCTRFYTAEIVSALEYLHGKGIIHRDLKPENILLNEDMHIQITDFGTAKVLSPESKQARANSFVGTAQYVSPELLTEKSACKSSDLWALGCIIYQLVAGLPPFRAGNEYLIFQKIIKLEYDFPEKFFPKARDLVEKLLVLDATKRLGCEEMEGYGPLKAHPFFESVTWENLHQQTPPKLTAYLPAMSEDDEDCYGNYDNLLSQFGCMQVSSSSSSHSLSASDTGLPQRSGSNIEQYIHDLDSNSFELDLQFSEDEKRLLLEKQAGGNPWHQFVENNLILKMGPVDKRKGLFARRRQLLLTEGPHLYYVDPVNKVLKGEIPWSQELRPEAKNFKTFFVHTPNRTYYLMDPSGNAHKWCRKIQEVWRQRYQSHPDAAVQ
# [9] = molecular target: T2, IKBKB (IKK beta) (Homo sapiens, UniProt O14920); settings: (μM)=Km app
# T2 sequence (O14920 1-756): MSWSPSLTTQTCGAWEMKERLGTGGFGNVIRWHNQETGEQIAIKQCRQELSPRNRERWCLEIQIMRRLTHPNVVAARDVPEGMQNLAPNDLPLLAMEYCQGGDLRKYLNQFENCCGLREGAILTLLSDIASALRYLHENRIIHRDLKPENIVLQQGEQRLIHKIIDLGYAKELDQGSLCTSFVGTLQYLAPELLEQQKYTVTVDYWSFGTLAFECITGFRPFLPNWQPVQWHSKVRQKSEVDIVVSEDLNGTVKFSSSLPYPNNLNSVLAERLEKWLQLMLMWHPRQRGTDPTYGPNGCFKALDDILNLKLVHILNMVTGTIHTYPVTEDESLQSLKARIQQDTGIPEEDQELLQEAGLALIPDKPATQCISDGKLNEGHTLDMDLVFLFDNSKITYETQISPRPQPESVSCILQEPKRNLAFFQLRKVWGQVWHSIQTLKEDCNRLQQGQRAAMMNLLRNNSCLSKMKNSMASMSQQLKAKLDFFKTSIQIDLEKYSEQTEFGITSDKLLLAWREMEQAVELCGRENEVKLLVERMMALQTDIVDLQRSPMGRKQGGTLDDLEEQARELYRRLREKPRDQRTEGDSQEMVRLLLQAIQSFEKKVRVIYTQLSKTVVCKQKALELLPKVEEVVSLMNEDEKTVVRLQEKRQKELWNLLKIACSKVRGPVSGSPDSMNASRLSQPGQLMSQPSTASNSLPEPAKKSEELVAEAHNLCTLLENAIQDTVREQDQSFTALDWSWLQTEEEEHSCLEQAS
# [10] = molecular target: T3, CHEK1 (CHK1) (Homo sapiens, UniProt O14757); settings: (μM)=Km app
# T3 sequence (O14757 1-476): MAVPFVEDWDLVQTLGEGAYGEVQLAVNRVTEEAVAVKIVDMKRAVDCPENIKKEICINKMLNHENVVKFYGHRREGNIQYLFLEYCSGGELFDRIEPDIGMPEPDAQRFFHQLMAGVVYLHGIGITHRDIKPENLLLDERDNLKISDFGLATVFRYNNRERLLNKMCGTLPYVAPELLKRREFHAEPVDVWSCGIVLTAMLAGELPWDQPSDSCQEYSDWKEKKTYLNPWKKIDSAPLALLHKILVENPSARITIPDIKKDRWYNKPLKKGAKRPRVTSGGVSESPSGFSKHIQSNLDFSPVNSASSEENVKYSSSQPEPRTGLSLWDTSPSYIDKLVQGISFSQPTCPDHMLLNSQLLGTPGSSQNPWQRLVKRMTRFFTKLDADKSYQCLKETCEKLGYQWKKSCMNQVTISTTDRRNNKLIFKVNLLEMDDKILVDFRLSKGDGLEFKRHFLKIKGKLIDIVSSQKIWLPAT
# Chain of AKT2 (PKB beta) (P31751 whole entry): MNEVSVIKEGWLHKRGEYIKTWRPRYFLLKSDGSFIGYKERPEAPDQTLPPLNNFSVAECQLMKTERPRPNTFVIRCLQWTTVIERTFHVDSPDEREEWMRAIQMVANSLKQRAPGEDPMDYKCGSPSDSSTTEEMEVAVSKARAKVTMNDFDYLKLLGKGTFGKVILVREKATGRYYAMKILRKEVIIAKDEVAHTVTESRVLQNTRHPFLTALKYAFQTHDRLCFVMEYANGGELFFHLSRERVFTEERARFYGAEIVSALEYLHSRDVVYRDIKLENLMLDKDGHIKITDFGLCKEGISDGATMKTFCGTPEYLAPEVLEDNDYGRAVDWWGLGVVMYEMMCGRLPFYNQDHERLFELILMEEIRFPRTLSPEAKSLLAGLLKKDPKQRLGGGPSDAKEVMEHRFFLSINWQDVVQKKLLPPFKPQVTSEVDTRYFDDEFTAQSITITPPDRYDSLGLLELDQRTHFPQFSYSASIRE
# Chain of IGF1R (P08069 whole entry): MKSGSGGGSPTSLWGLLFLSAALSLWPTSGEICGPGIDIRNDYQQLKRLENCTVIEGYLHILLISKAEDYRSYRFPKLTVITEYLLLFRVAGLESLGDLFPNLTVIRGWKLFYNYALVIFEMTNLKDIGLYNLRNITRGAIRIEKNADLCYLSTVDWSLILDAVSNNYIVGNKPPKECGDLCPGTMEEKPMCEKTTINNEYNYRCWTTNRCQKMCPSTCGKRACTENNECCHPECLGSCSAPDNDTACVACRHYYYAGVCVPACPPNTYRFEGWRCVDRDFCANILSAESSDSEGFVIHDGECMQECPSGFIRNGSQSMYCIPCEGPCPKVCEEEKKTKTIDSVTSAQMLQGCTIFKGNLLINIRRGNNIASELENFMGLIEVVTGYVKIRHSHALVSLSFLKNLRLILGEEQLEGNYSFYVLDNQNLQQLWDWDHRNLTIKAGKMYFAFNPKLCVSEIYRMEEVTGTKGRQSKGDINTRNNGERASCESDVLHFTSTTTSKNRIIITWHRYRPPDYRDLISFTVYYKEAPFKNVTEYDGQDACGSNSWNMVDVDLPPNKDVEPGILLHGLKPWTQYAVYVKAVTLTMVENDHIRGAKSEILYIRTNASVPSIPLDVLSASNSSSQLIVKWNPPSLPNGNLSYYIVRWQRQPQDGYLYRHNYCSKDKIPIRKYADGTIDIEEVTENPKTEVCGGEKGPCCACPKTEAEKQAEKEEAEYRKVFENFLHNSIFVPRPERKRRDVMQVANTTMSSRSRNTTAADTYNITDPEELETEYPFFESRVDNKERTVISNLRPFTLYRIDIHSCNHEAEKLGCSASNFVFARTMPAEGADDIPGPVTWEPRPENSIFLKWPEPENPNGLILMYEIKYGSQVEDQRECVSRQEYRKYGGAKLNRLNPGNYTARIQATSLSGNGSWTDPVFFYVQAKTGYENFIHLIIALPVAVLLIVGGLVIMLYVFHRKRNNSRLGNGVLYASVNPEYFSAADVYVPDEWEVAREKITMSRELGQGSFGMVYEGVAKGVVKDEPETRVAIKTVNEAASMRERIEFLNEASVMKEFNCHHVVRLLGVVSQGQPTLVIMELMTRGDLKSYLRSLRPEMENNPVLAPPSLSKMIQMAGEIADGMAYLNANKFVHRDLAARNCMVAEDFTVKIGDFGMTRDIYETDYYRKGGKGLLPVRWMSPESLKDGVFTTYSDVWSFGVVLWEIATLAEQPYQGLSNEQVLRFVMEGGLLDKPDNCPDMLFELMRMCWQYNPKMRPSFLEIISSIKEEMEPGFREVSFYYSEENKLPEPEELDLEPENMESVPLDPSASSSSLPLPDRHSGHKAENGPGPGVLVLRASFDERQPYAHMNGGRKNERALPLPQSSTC
# Chain of ABL1 (P00519 whole entry): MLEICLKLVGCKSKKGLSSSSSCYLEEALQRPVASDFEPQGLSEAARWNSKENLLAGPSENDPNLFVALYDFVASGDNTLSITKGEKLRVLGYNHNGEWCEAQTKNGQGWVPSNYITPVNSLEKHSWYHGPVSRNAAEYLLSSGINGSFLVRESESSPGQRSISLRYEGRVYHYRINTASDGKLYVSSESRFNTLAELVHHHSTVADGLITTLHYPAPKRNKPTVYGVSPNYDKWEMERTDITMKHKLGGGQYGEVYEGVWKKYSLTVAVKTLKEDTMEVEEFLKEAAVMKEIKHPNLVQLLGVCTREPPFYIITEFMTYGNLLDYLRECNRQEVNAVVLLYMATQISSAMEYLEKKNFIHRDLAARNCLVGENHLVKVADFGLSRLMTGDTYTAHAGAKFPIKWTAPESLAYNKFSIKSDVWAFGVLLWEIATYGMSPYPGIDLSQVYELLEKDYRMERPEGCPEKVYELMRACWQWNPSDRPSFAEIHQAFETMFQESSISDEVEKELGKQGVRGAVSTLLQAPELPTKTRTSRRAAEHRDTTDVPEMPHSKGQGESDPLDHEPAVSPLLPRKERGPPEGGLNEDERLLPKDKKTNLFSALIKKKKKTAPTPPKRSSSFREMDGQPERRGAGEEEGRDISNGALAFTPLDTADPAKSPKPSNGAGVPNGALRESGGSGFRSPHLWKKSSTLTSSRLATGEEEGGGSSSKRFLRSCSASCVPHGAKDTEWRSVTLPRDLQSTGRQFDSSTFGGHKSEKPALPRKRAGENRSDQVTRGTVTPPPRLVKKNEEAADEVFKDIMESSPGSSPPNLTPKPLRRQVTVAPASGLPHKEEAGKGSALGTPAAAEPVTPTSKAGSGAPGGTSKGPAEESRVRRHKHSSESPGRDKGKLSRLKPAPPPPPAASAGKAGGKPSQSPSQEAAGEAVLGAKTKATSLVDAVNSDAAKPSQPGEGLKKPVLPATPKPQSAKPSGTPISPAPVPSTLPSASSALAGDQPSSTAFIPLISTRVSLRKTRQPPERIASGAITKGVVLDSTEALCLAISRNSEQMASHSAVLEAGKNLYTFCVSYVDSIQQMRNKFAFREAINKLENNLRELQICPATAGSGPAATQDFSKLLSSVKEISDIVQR
# Chain of SRC (P12931 whole entry): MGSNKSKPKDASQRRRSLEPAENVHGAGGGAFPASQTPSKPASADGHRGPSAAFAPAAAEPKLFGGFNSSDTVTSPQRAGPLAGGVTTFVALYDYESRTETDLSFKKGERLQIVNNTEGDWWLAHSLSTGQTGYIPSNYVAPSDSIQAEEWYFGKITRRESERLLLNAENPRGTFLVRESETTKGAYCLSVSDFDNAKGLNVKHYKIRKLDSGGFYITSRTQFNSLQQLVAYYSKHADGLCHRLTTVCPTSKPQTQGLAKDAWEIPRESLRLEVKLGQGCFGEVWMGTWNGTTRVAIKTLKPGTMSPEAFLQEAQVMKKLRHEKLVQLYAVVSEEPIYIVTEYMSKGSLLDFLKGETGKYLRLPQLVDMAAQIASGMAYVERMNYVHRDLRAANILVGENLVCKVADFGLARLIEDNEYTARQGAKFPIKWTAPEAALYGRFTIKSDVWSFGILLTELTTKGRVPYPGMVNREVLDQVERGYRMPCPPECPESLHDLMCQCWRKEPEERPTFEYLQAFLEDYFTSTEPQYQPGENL
# Chain of ABL1 E255K (P00519 whole entry E255K): as the sequence (P00519 whole entry) above, with E255K counted along it
# Chain of PKN1 (PRK1) (Q16512 whole entry): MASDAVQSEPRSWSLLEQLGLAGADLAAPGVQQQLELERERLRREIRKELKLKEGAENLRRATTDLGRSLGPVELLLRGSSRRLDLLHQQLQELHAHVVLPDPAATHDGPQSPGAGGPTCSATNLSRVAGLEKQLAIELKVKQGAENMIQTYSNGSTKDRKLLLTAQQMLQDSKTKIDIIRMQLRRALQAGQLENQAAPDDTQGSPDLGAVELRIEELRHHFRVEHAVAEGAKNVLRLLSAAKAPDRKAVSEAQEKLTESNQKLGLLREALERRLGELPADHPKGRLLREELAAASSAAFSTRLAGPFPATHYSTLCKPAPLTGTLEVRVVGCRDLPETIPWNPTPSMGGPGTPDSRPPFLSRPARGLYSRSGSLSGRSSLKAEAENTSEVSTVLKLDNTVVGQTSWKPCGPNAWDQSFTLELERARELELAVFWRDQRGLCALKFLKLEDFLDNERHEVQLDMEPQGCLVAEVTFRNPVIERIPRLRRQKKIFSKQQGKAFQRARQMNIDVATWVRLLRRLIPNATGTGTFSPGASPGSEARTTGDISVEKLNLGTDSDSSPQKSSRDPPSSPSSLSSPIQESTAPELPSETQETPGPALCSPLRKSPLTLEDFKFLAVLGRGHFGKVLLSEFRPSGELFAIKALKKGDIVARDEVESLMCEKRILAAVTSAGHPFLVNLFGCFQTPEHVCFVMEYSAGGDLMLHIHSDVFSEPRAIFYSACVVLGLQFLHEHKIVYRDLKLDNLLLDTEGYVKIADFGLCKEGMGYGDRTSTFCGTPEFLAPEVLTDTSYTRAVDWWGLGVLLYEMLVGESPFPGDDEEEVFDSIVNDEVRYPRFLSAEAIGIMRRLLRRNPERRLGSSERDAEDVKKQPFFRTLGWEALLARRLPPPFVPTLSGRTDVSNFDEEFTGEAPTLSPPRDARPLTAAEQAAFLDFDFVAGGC
inhibition at 1 µM [1],inhibition at 3 µM [1],inhibition at 10 µM [1],inhibition at 1 µM [2],inhibition at 3 µM [2],inhibition at 10 µM [2],inhibition at 1 µM [3],inhibition at 3 µM [3],inhibition at 10 µM [3],inhibition at 1 µM [4],inhibition at 3 µM [4],inhibition at 10 µM [4],inhibition at 1 µM [5],inhibition at 3 µM [5],inhibition at 10 µM [5],inhibition at 1 µM [6],inhibition at 3 µM [6],inhibition at 10 µM [6],inhibition at 1 µM [7],inhibition at 3 µM [7],SMILES,other results
8.46%,1.84%,-4.65%,4.3%,3.38%,4.53%,8.59%,3.7%,9.6%,-2.31%,-1.35%,-2.49%,7.35%,2.59%,5.33%,8.77%,11%,10.9%,2.07%,2.45%,"O=C(CSc1nc2nccnc2c(=O)n1CCc1ccccc1)Nc1nccs1 [compound 1, PITCOIN1]",inhibition at 10 µM [7]: 1.9%; inhibition at 1 µM [8]: 8.23%; inhibition at 3 µM [8]: 7.27%; inhibition at 10 µM [8]: 6.69%; inhibition at 1 µM [9]: 8.34%; inhibition at 3 µM [9]: 4.24%; inhibition at 10 µM [9]: 4.15%; inhibition at 1 µM [10]: -13.5%; inhibition at 3 µM [10]: -11.6%; inhibition at 10 µM [10]: -3.01%
2.88%,-5.53%,4.05%,6.93%,6.2%,4.52%,9.83%,12.2%,7.36%,-1.49%,2.48%,-1.01%,5.31%,9.19%,11.7%,9.36%,10%,7.66%,1.91%,4.06%,"CS(=O)(=O)Nc1cccc(-c2csc(NC(=O)CSc3nc4nccnc4c(=O)n3CCc3ccccc3)n2)c1 [compound 3, PITCOIN3]",inhibition at 10 µM [7]: 4%; inhibition at 1 µM [8]: 9.47%; inhibition at 3 µM [8]: 5.91%; inhibition at 10 µM [8]: 10.5%; inhibition at 1 µM [9]: 3.7%; inhibition at 3 µM [9]: 14.3%; inhibition at 10 µM [9]: 12.2%; inhibition at 1 µM [10]: -7.7%; inhibition at 3 µM [10]: -2.83%; inhibition at 10 µM [10]: -11.2%
